Reference: US20230099441A1, “HETEROCYCLIC COMPOUND, APPLICATION THEREOF, AND COMPOSITION CONTAINING SAME” (GenEros Biopharma Ltd., priority 2019, published 2023)

Legend:
[1] = tested on: mouse collagen-induced arthritis model; test: Therapeutic efficacy in a mouse collagen-induced arthritis model (clinical score); type: in vivo; conditions: mean of group, total score 0-12, oral, Methotrexate 0.25 mg/kg once a week, Tofacitinib 5 mg/kg once a day, X8 1 mg/kg once a day
Source text: Example of Effect 2: Evaluation of the Therapeutic Efficacy of X8 Compound in a Mouse Collagen-Induced Arthritis Model
(§1) Sixty male DBA/1J mice (9-10 weeks old, H-2q haplotype) were acclimatized in a standard animal room for one week and then randomly divided into 5 groups. Except for the healthy control group, the rest were inoculated with collagen antigen injection, and then received oral treatment with different compounds. The brief procedure was to mix bovine type II collagen (purchased from Chondrex, 20021) with an equal volume of Freund's complete adjuvant (purchased from Sigma, F5881), the concentration was 4 mg/ml, and it was treated with a homogenizer at a speed of 20,000 revolutions/min for 5-10 minutes. A needle was inserted between the left side of the dorsal caudal artery and the lateral vein of the mouse, and 50 microliters of modeling agent was injected subcutaneously. 21 days after the first injection, another injection was injected between the right side of the dorsal tail artery and the lateral vein of the mouse. After the first injection, oral administration was started. The drug was formulated with […] PEG300, and it was prepared for immediate use. […] The total score was between 0-12 points, and the swelling of the foot after vaccination was not calculated.

[2] = Body weight of animals in the mouse collagen-induced arthritis model; type: in vivo; conditions: oral, X8 1 mg/kg once a day; for body weight of animals, Mean/g: mean of group, Methotrexate 0.25 mg/kg once a week, Tofacitinib 5 mg/kg once a day
Source text: as §1

[3] = tested on: STAT5 Y694 phosphorylation; test: Protein electrophoresis and blotting of STAT5 Y694 phosphorylation in Jurkat cells stimulated with human interferon beta; type: cell-based; conditions: for Example of Effect 1: Inhibiting Ability (Protein Electrophoresis and Blotting): observed pSTAT5 bands at 10 μM and 100 μM; for Inhibiting Ratio (0% for vehicle control): 1 hour pretreatment, 20 ng/ml human interferon beta 30 minutes, pSTAT5/GAPDH
In short: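 Serum-free Jurkat cells pretreated with compound 1 h, then stimulated with 20 ng/ml human interferon beta for 30 min at 37° C. pSTAT5 measured by western blot with chemiluminescence, normalized to GAPDH and expressed as percent of DMSO control.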

[4] = tested on: STAT5 Y694 phosphorylation; test: HTRF experiment: STAT5 Y694 phosphorylation in Hela cells stimulated with human interferon beta; type: cell-based; conditions: 2 hours pretreatment, 10 nM human interferon beta 30 minutes

Q: For `C[C@@H]1CCN(C(=O)CC#N)C[C@@H]1N(C)c1ncnc2[nH]ccc12` [Tofacitinib, tofacitinib], which “clinical score of arthritis, Mean (the larger the value, the more severe the disease)” value (shortened to “clinical score of arthritis, Mean”) ([1]; day 0) is on record?
A: 0.00

Q: And the “clinical score of arthritis, Mean” value ([1]; day 21)?
A: 0.00

Q: And the “clinical score of arthritis, Mean” value ([1]; day 25)?
A: 0.00

Q: What about the “clinical score of arthritis, Mean” value ([1]; day 28) of the same compound?
A: 0.81

Q: And the “clinical score of arthritis, Mean” value ([1]; day 31)?
A: 1.83

Q: What about the “clinical score of arthritis, Mean” value ([1]; day 33) of the same compound?
A: 2.19

Q: What about the “clinical score of arthritis, Mean” value ([1]; day 35) of the same compound?
A: 2.52

Q: What about the “clinical score of arthritis, Mean” value ([1]; day 38) of the same compound?
A: 2.77

Q: What about the “clinical score of arthritis, Mean” value ([1]; day 40) of the same compound?
A: 2.62

Q: What about the “clinical score of arthritis, Mean” value ([1]; day 42) of the same compound?
A: 3.14

Q: And the “clinical score of arthritis, Mean” value ([1]; day 45)?
A: 2.90

Q: And the “body weight of animals, Mean/g” value ([2]; day 0)?
A: 21.94 g

Q: And the “body weight of animals, Mean/g” value ([2]; day 4)?
A: 22.41 g

Q: What about the “body weight of animals, Mean/g” value ([2]; day 7) of the same compound?
A: 22.76 g

Q: What about the “body weight of animals, Mean/g” value ([2]; day 11) of the same compound?
A: 22.79 g

Q: And the “body weight of animals, Mean/g” value ([2]; day 14)?
A: 22.55 g

Q: What about the “body weight of animals, Mean/g” value ([2]; day 18) of the same compound?
A: 22.87 g

Q: And the “body weight of animals, Mean/g” value ([2]; day 20)?
A: 23.20 g

Q: What about the “body weight of animals, Mean/g” value ([2]; day 25) of the same compound?
A: 22.48 g

Q: And the “body weight of animals, Mean/g” value ([2]; day 28)?
A: 22.46 g

Q: What about the “body weight of animals, Mean/g” value ([2]; day 31) of the same compound?
A: 22.37 g

Q: What about the “body weight of animals, Mean/g” value ([2]; day 33) of the same compound?
A: 22.65 g

Q: And the “body weight of animals, Mean/g” value ([2]; day 35)?
A: 22.43 g

Q: What about the “body weight of animals, Mean/g” value ([2]; day 38) of the same compound?
A: 22.30 g

Q: What about the “body weight of animals, Mean/g” value ([2]; day 40) of the same compound?
A: 20.90 g

Q: And the “body weight of animals, Mean/g” value ([2]; day 42)?
A: 22.13 g

Q: What about the “body weight of animals, Mean/g” value ([2]; day 45) of the same compound?
A: 22.30 g

Q: And the “effect on body weight of animals (in words)” value ([2]; whole experiment, days 0-45, methotrexate 0.25 mg/kg once a week, tofacitinib 5 mg/kg once a day)?
A: weight loss in the late stage of the experiment

Q: With `O=C(Cc1ccc(C(F)(F)F)cc1)N1CCC(N2Cc3ccccc3NC2=O)CC1` [GEN1-161, 3-(1-(2-(4-(trifluoromethyl)phenyl)acetyl)piperidin-4-yl)-3,4-dihydroquinazolin-2(1H)-one] as the compound, how does the “Example of Effect 1: Inhibiting Ability (Protein Electrophoresis and Blotting)” value (shortened to “Example of Effect 1: Inhibiting Ability”) [3] read?
A: +

Q: And the “Example of Effect 3: Inhibiting Ratio@10 μM (HTRF Experiment)” value [4]?
A: 1.38%

Q: Which results are given for `O=C(Cc1ccc2ncccc2c1)N1CCCC(n2c(=O)[nH]c3cccc(C(F)(F)F)c32)CC1` (centres unmarked) [GEN1-173, 1-(1-(2-(quinolin-6-yl)acetyl)azacycloheptane-4-yl)-7-(trifluoromethyl)-1,3-dihydro-2H-benzo[d]imidazol-2-one]?
A: Example of Effect 1: Inhibiting Ability (Protein Electrophoresis and Blotting) [3]: +; Example of Effect 3: Inhibiting Ratio@10 μM (HTRF Experiment) [4]: 50.75%

Q: What does the source list for `CC(=O)Nc1ccccc1NC1CCN(C(=O)Cc2ccc(C(F)(F)F)cc2)CC1` [GEN1-057, N-(2-((1-(2-(4-(trifluoromethyl)phenyl)acetyl)piperidin-4-yl)amino)phenyl)acetamide]?
A: Example of Effect 1: Inhibiting Ability (Protein Electrophoresis and Blotting) [3]: ++; Example of Effect 3: Inhibiting Ratio@10 μM (HTRF Experiment) [4]: 66.22%

Q: What does the source list for `O=C1CN(C2CCN(C(=O)Cc3ccc(C(F)(F)F)cc3)CC2)c2cccc(C(F)(F)F)c2N1` [GEN1-134, 8-(trifluoromethyl)-4-(1-(2-(4-(trifluoromethyl)phenyl)acetyl)piperidin-4-yl)-3,4-dihydroquinoxaline-2(1H)-one]?
A: Example of Effect 1: Inhibiting Ability (Protein Electrophoresis and Blotting) [3]: −; Example of Effect 3: Inhibiting Ratio@10 μM (HTRF Experiment) [4]: 3.06%

Q: Which “Inhibiting Ratio (0% for vehicle control)” value ([3]; 1 μM) does the source give for `O=C(Cc1ccc(C(F)(F)F)cc1)N1CCC(n2c(=O)[nH]c3cccc(C(F)(F)F)c32)CC1` [GEN1-013, 7-(trifluoromethyl)-1-(1-(2-(4-(trifluoromethyl)phenyl)acetyl)piperidin-4-yl)-1H-benzo[d]imidazole-2(3H)-one] here?
A: 12.4%

Q: What about the “Inhibiting Ratio (0% for vehicle control)” value ([3]; 10 μM) of the same compound?
A: 62.6%

Q: What about the “Inhibiting Ratio (0% for vehicle control)” value ([3]; 100 μM) of the same compound?
A: 97.0%

Q: What about the “Example of Effect 1: Inhibiting Ability” value [3] of the same compound?
A: +

Q: What about the “Example of Effect 3: Inhibiting Ratio@10 μM (HTRF Experiment)” value [4] of the same compound?
A: 20.29%

Q: With `CC(=O)/N=c1\[nH]c2cccc(C(F)(F)F)c2n1C1CCN(C(=O)Cc2ccc3ncccc3c2)CC1` [GEN1-171] as the compound, how does the “Example of Effect 1: Inhibiting Ability” value [3] read?
A: −

Q: What about the “Example of Effect 3: Inhibiting Ratio@10 μM (HTRF Experiment)” value [4] of the same compound?
A: 9.85%

Q: With `CC(C)(C(=O)N1CCC(n2c(=O)[nH]c3cccc(C(F)(F)F)c32)CC1)c1ccc(C(F)(F)F)cc1` [GEN1-158, 1-(1-(2-methyl-2-(4-(trifluoromethyl)phenyl)propionyl)piperidin-4-yl)-7-(trifluoromethyl)-1H-benzo[d]imidazol-2(3H)-one] as the compound, how does the “Example of Effect 1: Inhibiting Ability” value [3] read?
A: −

Q: What about the “Example of Effect 3: Inhibiting Ratio@10 μM (HTRF Experiment)” value [4] of the same compound?
A: 0.16%

Q: Which results are given for `COc1ccc2[nH]c(=O)n(C3CCN(C(=O)Cc4ccc(C(F)(F)F)cc4)CC3)c2c1` [GEN1-011, 6-methoxy-1-(1-(2-(4-(trifluoromethyl)phenyl)acetyl)piperidin-4-yl)-1H-benzo[d]imidazole-2 (3H)-one]?
A: Example of Effect 1: Inhibiting Ability (Protein Electrophoresis and Blotting) [3]: +; Example of Effect 3: Inhibiting Ratio@10 μM (HTRF Experiment) [4]: 20.49%
